Source: paper PMC7485652 (Saudi Journal of Medicine & Medical Sciences, 2020)
Where two headings read alike, the source gives them in different places.

What was measured:
CYP3A4 = conditions: cited from earlier work
[1] = for plasma level of quetiapine / hmax: male rats; for hmax: mean±SD
[2] = cited from earlier work; for decrease of plasma concentration of quetiapine: administration of lamotrigine
[3] = with probenecid, by inhibition of UGT glucuronidation enzymes; cited from earlier work
[4] = quetiapine 50 mg/kg oral after probenecid 50 mg/kg oral
[5] = quetiapine alone, 50 mg/kg single oral dose

For `CCCC(CCC)C(=O)O` [Valproic acid], the “inhibition of CYP3A4” value (CYP3A4) is given as “weak inhibitor”.
In the case of `OCCOCCN1CCN(C2=Nc3ccccc3Sc3ccccc32)CC1` [Quetiapine], the “plasma level of quetiapine” value [1, 4] is reported as 323 ± 128 µg/L, the hmax [1, 4] is reported as 0.63 ± 0.3 h and the “plasma level of quetiapine” value [1, 5] is reported as 155 ± 37 µg/L. The hmax [1, 5] was 5 ± 2 h, the “difference in half-life of quetiapine between groups” value ([1]; quetiapine plus probenecid vs quetiapine alone, rats) was “no significant difference” and the “decrease of plasma concentration of quetiapine” value ([2]; study with 22 patients) was 58%. The “decrease of plasma concentration of quetiapine” value ([2]; study with 144 patients) was 17%, the “increase of plasma level of quetiapine” value ([2]; co-administered valproic acid, elderly patients) was 77% and the “increase of Cmax of quetiapine” value ([2]; coadministered with sodium divalproex, adult patients, nonsignificant) was 17%. The “change in AUC τ of quetiapine” value ([2]; coadministered with sodium divalproex, adult patients) was “no changes” and the “effect of coadministration on quetiapine” value ([2]; coadministered with valproic acid, adult patients, ref Santoro et al. 20) was “nonsignificant results”.
In the case of `Cc1cc2c(s1)Nc1ccccc1N=C2N1CCN(C)CC1` [olanzapine], the level of olanzapine [3] is given as “increases”.
